Among the data in PubChem BioAssay AID1259407 (Chemical Carcinogenesis Research Information System (CCRIS), 2018) are mutagenic call values, retold here.

The source made the active and inactive calls. How the calls were made is not given here.

The subject of the data set is CCRIS mutagenicity, Ames/micronucleus/aberration tests. Nature of the data set: CCRIS mutagenicity studies.
Where [1] appears, read: Test System: AMES SALMONELLA TYPHIMURIUM, Strain/Indicator: TA100, Metabolic Activation: NONE, Method: PREINCUBATION

Take `C=COC(C)=O`: the mutagenic call is, setting by setting: (Test System: AMES SALMONELLA TYPHIMURIUM, Strain/Indicator: TA97, Metabolic Activation: NONE, Method: STANDARD PLATE) “inactive; negative”; (Test System: AMES SALMONELLA TYPHIMURIUM, Strain/Indicator: TA97, Metabolic Activation: RAT, LIVER, S-9, AROCLOR 1254, Method: STANDARD PLATE) “inactive; negative”; (Test System: AMES SALMONELLA TYPHIMURIUM, Strain/Indicator: TA98, Metabolic Activation: NONE, Method: STANDARD PLATE) “inactive; negative”; (Test System: AMES SALMONELLA TYPHIMURIUM, Strain/Indicator: TA98, Metabolic Activation: RAT, LIVER, S-9, AROCLOR 1254, Method: STANDARD PLATE) “inactive; negative”; (Test System: AMES SALMONELLA TYPHIMURIUM, Strain/Indicator: TA100, Metabolic Activation: NONE, Method: STANDARD PLATE) “inactive; negative”; (Test System: AMES SALMONELLA TYPHIMURIUM, Strain/Indicator: TA100, Metabolic Activation: RAT, LIVER, S-9, AROCLOR 1254, Method: STANDARD PLATE) “inactive; negative”. For the same compound, the mutagenic call (Test System: AMES SALMONELLA TYPHIMURIUM, Strain/Indicator: TA102, Metabolic Activation: RAT LIVER S-9, PHENOBARBITAL AND 5,6-BENZOFLAVONE, Method: STANDARD PLATE) is “inactive; negative”; the mutagenic call (Test System: AMES SALMONELLA TYPHIMURIUM, Strain/Indicator: TA102, Metabolic Activation: RAT, LIVER, S-9, AROCLOR 1254, Method: PREINCUBATION) was “active; positive”; the mutagenic call (Test System: AMES SALMONELLA TYPHIMURIUM, Strain/Indicator: TA102, Metabolic Activation: RAT, LIVER, S-9, AROCLOR 1254, Method: STANDARD PLATE) was “inactive; negative”; the mutagenic call (Test System: AMES SALMONELLA TYPHIMURIUM, Strain/Indicator: TA2638, Metabolic Activation: RAT LIVER S-9, PHENOBARBITAL AND 5,6-BENZOFLAVONE, Method: STANDARD PLATE) is “inactive; negative”; the mutagenic call (Test System: Ames Salmonella typhimurium, Strain/Indicator: TA98, Metabolic Activation: None, Method: Preincubation) is “inactive; negative”; the mutagenic call (Test System: Ames Salmonella typhimurium, Strain/Indicator: TA98, Metabolic Activation: Rat, Liver, S9, Sodium phenobarbital and 5,6-benzoflavone (10%), Method: Preincubation) is “inactive; negative”. In addition, the mutagenic call is “inactive; negative” (Test System: Ames Salmonella typhimurium, Strain/Indicator: TA100, Metabolic Activation: None, Method: Preincubation); “inactive; negative” (Test System: Ames Salmonella typhimurium, Strain/Indicator: TA100, Metabolic Activation: Rat, Liver, S9, Sodium phenobarbital and 5,6-benzoflavone (10%), Method: Preincubation); “inactive; negative” (Test System: Ames Salmonella typhimurium, Strain/Indicator: TA1535, Metabolic Activation: None, Method: Preincubation); “inactive; negative” (Test System: Ames Salmonella typhimurium, Strain/Indicator: TA1535, Metabolic Activation: Rat, Liver, S9, Sodium phenobarbital and 5,6-benzoflavone (10%), Method: Preincubation); “inactive; negative” (Test System: Ames Salmonella typhimurium, Strain/Indicator: TA1537, Metabolic Activation: None, Method: Preincubation); “inactive; negative” (Test System: Ames Salmonella typhimurium, Strain/Indicator: TA1537, Metabolic Activation: Rat, Liver, S9, Sodium phenobarbital and 5,6-benzoflavone (10%), Method: Preincubation). For the same compound, the mutagenic call was “inactive; negative” (Test System: Ames Salmonella typhimurium, Strain/Indicator: YG7108pin3ERb5, Metabolic Activation: None, Method: Standard plate); “inactive; negative” (Test System: E. COLI, Strain/Indicator: WP2 (PKM101), Metabolic Activation: RAT LIVER S-9, PHENOBARBITAL AND 5,6-BENZOFLAVONE, Method: STANDARD PLATE); “inactive; negative” (Test System: E. COLI, Strain/Indicator: WP2 UVRA (PKM101), Metabolic Activation: RAT LIVER S-9, PHENOBARBITAL AND 5,6-BENZOFLAVONE, Method: STANDARD PLATE); “inactive; negative” (Test System: E. coli, Strain/Indicator: WP2uvrA/pKM101, Metabolic Activation: None, Method: Preincubation); “inactive; negative” (Test System: E. coli, Strain/Indicator: WP2uvrA/pKM101, Metabolic Activation: Rat, Liver, S9, Sodium phenobarbital and 5,6-benzoflavone (10%), Method: Preincubation); “active; positive. reevaluation of results: positive” (Test System: MOUSE LYMPHOMA, Strain/Indicator: L5178Y (TK+/TK-), Metabolic Activation: NONE, Method: SUSPENSION/PLATE). The mutagenic call (Test System: Mouse lymphoma, Strain/Indicator: L5178Y (tk+/tk-), Metabolic Activation: Rat, Liver, S-9, Aroclor 1254, Method: Suspension/plate) was “active; positive”.
Take `CCOc1ccc(N(O)C(C)=O)cc1`: the mutagenic call was “active; positive” (End Point: IN VITRO MICRONUCLEUS, Test System: RAT KIDNEY FIBROBLAST NRK-49F, Metabolic Activation: NONE); “active; positive” (Test System: AMES SALMONELLA TYPHIMURIUM, Strain/Indicator: TA100, Metabolic Activation: HAMSTER, LIVER, S-9, AROCLOR 1254, Method: LIQUID SUSPENSION); “active; positive” (Test System: AMES SALMONELLA TYPHIMURIUM, Strain/Indicator: TA100, Metabolic Activation: HAMSTER, LIVER, S-9, KANECHLOR 400 (WITHOUT NADPH GENERATING SYSTEM), Method: PREINCUBATION); “inactive; negative” under setting [1]; “active; positive” (Test System: AMES SALMONELLA TYPHIMURIUM, Strain/Indicator: TA100, Metabolic Activation: RAT, LIVER, S-9, PCB, Method: LIQUID SUSPENSION).
`Oc1ccc2[nH]c3ccccc3c2c1`: for the setting “Test System: CHINESE HAMSTER OVARY, Strain/Indicator: CHO-K1-BH4 (HGPRT)/6-THIOGUANINE, Metabolic Activation: RAT, LIVER, S-9, AROCLOR (4%)”, the mutagenic call is “active; positive”.
`CCCCCOc1cccc(NC(=O)O[C@@H]2CCCC[C@H]2N2CCCC2)c1`: the mutagenic call (Test System: AMES SALMONELLA TYPHIMURIUM, Strain/Indicator: TA98, Metabolic Activation: MOUSE, LIVER, S-9, AROCLOR 1254, Method: PREINCUBATION) was “inactive; negative”; the mutagenic call (Test System: AMES SALMONELLA TYPHIMURIUM, Strain/Indicator: TA98, Metabolic Activation: NONE, Method: PREINCUBATION) is “inactive; negative”; the mutagenic call (Test System: AMES SALMONELLA TYPHIMURIUM, Strain/Indicator: TA100, Metabolic Activation: MOUSE, LIVER, S-9, AROCLOR 1254, Method: PREINCUBATION) is “inactive; negative”; the mutagenic call under setting [1] is “inactive; negative”; the mutagenic call (Test System: AMES SALMONELLA TYPHIMURIUM, Strain/Indicator: TA1535, Metabolic Activation: MOUSE, LIVER, S-9, AROCLOR 1254, Method: PREINCUBATION) is “inactive; negative”; the mutagenic call (Test System: AMES SALMONELLA TYPHIMURIUM, Strain/Indicator: TA1535, Metabolic Activation: NONE, Method: PREINCUBATION) is “inactive; negative”. Moreover, the mutagenic call is “inactive; negative” (Test System: AMES SALMONELLA TYPHIMURIUM, Strain/Indicator: TA1538, Metabolic Activation: MOUSE, LIVER, S-9, AROCLOR 1254, Method: PREINCUBATION); “inactive; negative” (Test System: AMES SALMONELLA TYPHIMURIUM, Strain/Indicator: TA1538, Metabolic Activation: NONE, Method: PREINCUBATION); “inactive; negative” (Test System: AMES SALMONELLA TYPHIMURIUM, Strain/Indicator: TA1978, Metabolic Activation: MOUSE, LIVER, S-9, AROCLOR 1254, Method: PREINCUBATION); “inactive; negative” (Test System: AMES SALMONELLA TYPHIMURIUM, Strain/Indicator: TA1978, Metabolic Activation: NONE, Method: PREINCUBATION); “inactive; negative” (Test System: E. COLI, Strain/Indicator: CM611 UVRA/LEXA, Metabolic Activation: MOUSE, LIVER, S-9, AROCLOR 1254, Method: PREINCUBATION); “inactive; negative” (Test System: E. COLI, Strain/Indicator: CM611 UVRA/LEXA, Metabolic Activation: NONE, Method: PREINCUBATION). The mutagenic call is “inactive; negative” (Test System: E. COLI, Strain/Indicator: WP2, Metabolic Activation: MOUSE, LIVER, S-9, AROCLOR 1254, Method: PREINCUBATION); “inactive; negative” (Test System: E. COLI, Strain/Indicator: WP2, Metabolic Activation: NONE, Method: PREINCUBATION); “inactive; negative” (Test System: E. COLI, Strain/Indicator: WP2 UVRA, Metabolic Activation: MOUSE, LIVER, S-9, AROCLOR 1254, Method: PREINCUBATION); “inactive; negative” (Test System: E. COLI, Strain/Indicator: WP2 UVRA, Metabolic Activation: NONE, Method: PREINCUBATION); “inactive; negative” (Test System: E. COLI, Strain/Indicator: WP67 UVRA/POLA, Metabolic Activation: MOUSE, LIVER, S-9, AROCLOR 1254, Method: PREINCUBATION); “inactive; negative” (Test System: E. COLI, Strain/Indicator: WP67 UVRA/POLA, Metabolic Activation: NONE, Method: PREINCUBATION).
On to `CN(N=O)C(=O)Oc1ccccc1Cl`, for which, under “Test System: E. COLI WP2, Strain/Indicator: WP2, Metabolic Activation: NONE, Method: STANDARD PLATE”, the mutagenic call is “active; positive”.
